According to patent US20080201790A1, “Method and product for regulating cell responsiveness to external signals” (priority 1993, published 2008):
Entries after “also recorded” stand apart in the source; their conditions may differ. Each block holds one compound with its values, some of them ahead of it.

Columns and labels:
[1] = system: 98 kD PC12 cell MEKK; test: MEKK immunoprecipitate kinase assay from PC12 cells with kinase inactive MEK-1; assay type: cell-based; settings: for MEKK activity after stimulation (in words): serum starved PC12 cells, 5 minutes
Method: Reactions were stopped by the addition of 2×SDS sample buffer (20 μl). The samples were boiled for 3 minutes and subjected to SDS-PAGE and autoradiography. Raf-B was immunoprecipitated from the same untreated and treated PC12 cell lysates as above with an antiserum to a COOH-terminal peptide of Raf-B (Santa Cruz Biotechnology, Inc.) and assayed similarly. Raf-1 was immunoprecipitated with an antiserum to the 12 COOH-terminal amino acids of Raf-1 (Santa Cruz Biotechnology, Inc.).
Data represent the relative magnitude of the response for each timepoint as quantitated by phosphorimager analysis of radioactive gels from a typical experiment.
Expression of N^17Ras was induced in PC12 clones stably transfected with the N^17Ras gene by the addition of dexamethasone to the starvation media. […] PC12 cell clones stably transfected with the N^17Ras gene are less responsive to EGF-mediated activation of MEKK activity than are wild type PC12 cells. […] MEKK activity in immunoprecipitates or column fractions was dissociable from that of EGF-stimulated c-Raf-1 and Raf-B activities.
To determine whether the growth factor-mediated activation of 98 kD PC12 cell MEKK was inhibited by PKA, forskolin was used to elevate intracellular cAMP and activate PKA. […] Raf-B activity was also assayed from the same cell lysates to test whether its regulation differed from that of MEKK. Raf-B was immunoprecipitated from the same cell lysates as described above and assayed for its ability to phosphorylate MEK-1 as described above.

[2] = system: Raf-B; test: Raf-B immunoprecipitate kinase assay from PC12 cells with kinase inactive MEK-1; assay type: cell-based; settings: PC12 cells, EGF 30 ng/ml 5 minutes
[3] = system: L929 cells; test: Propidium iodide staining of L929 clones with inducible N17 Ras or V12 Ras; assay type: cell-based, murine; settings: IPTG-induced expression
Method: Ras expression was induced with 5 mM IPTG for 10 hours and cells were subsequently treated with 5 ng/ml TNFα in the presence or absence of 0.5 ng/ml bFGF for 16 hours. Cells were fixed and stained with propidium iodide. The percentage of apoptotic cells was calculated. Solid bars represent cells induced with IPTG; hatched bars, induced with IPTG and treated with TNFα; checked bars, induced with IPTG and treated with TNFα and bFGF.
Cell lines and culture. […] JNK activity was measured using a solid state kinase assay in which glutathione S-transferase-c-Jun (1-79) (GST-JUN) cound to glutathione-Sepharose 4B beads was used to affinity purify JNK and then JNK activity was measured in an in vitro kinase assay using the sepharose bound GST-Jun as a substrate (Hibi, M., et al. (1993) Genes & Development 7:2135-2148). […] MAPK Assay MAPK activity was measured exactly as described previously (Gardner, A. M., et al. (1994) Meth. Enzymol. 238:258-270) with the exception that MonoQ FPLC fractionation was replaced by step elution from a DEAE-Sephacel column using 0.5 M NaCl in loading buffer. […]

[4] = system: JNK; test: JNK solid state kinase assay (GST-Jun) in L929 cells; assay type: cell-based, murine; settings: L929 cells
Method: (§1) In panel A cells were treated for 10 minutes with the indicated concentration of TNFα. JNK activation was measured using a solid phase kinase assay resulting in phosphorylation of GST-Jun. In […] the time course of MAPK activation is shown. MAPK was isolated from cell lysates on DEAE sephacel columns and MAPK activation was measured by phosphorylation of the EGFR peptide substrate. Panel C depicts the concentration curve of MAPK activation by TNFα. Cells were treated with the indicated concentration of TNFα and MAPK was assayed.
(§2) Cell lines and culture. L929 cells (ATCC CCL1 were maintained in Dulbecco's modified Eagle's medium with 5% newborn calf serum and 5% bovine calf serum (BCS) supplemented with 100 ug/ml streptomycin and 100 U/ml penicillin. The cells were grown in 10 cm dishes at 37° C. in 7.5% CO2. Cells were made quiescent where indicated by incubation in Dulbecco's modified Eagle's medium and 0.1% bovine serum albumin for 24 h. Recombinant murine TNFα and recombinant human bFGF (147aa) were from R&D Systems, Minneapolis, Minn. Cells were pretreated where indicated with the MEK-1 inhibitor PD#098059 (Parke-Davis Pharmaceutical Corp. Ann Arbor, Mich.) for 1 h at 37° C. Cells were stimulated by incubation with the indicated cytokine or growth factor for various times at 37° C. Stimulation was stopped by rinsing the plates twice with ice cold phosphate buffered saline (PBS) and lysing the cells in the appropriate lysis buffer. Cells were scraped from the plates and nuclei were pelleted for 10 min at 14,000 RPM in a microcentrifuge. JNK assay. JNK activity was measured using a solid state kinase assay in which glutathione S-transferase-c-Jun (1-79) (GST-JUN) cound to glutathione-Sepharose 4B beads was used to affinity purify JNK and then JNK activity was measured in an in vitro kinase assay using the sepharose bound GST-Jun as a substrate (Hibi, M., et al. (1993) Genes & Development 7:2135-2148). Stimulated or unstimulated cells were lysed in 0.5% Nonidet P-40, 20 mM HEPES pH 7.2, 100 mM NaCl, 2 mM dithiothreitol, 1 mM EDTA, 1.0 mM phenylmethylsulfonylfluoride, 1 μg/ml aprotinin and the nuclei pelleted. Lysates were normalized for protein content. JNK was affinity purified from 50-100 μg of cell lysate by the addition of 10 ul of GST-Jun sepharose slurry (2 μg GST-Jun). Binding to GST-Jun efficiently isolates the two major forms of JNK (p45 and p55) and under the conditions used JNK isolation was linear for 10-250 μg of cell lysate. The lysates were rotated at 4° C. for 1-3 h. Beads were washed twice in lysis buffer and then twice in PAN (10 mM PIPES, pH 7.0, 100 mM NaCl, 21 μg/ml aprotinin). Kinase reactions were carried out at 30° C. for 15 min in 20 mM Hepes pH 7.2, 20 mM β-glycerophosphate, 10 mM p-nitrophenyl phosphate, 10 mM MgCl2, 1 mM dithiothreitol, 50 μm sodium vanadate, 10 μCi γ^32P-ATP 4300 Ci/mmole. The kinase reaction was linear from 0-30 min. MAPK Assay MAPK activity was measured exactly as described previously (Gardner, A. M., et al. (1994) Meth. Enzymol. 238:258-270) with the exception that MonoQ FPLC fractionation was replaced by step elution from a DEAE-Sephacel column using 0.5 M NaCl in loading buffer. The eluate was assayed in triplicate using the epidermal growth factor receptor 662-681 peptide (EGFR662-681) as a selective substrate for MAPK activity (Heasley, L. E., et al. (1994) American Journal of Physiology (Renal Fluid Electrolyte Physiol. 36) 267:F366-F373). […] Cells were lysed by scraping in ice cold RIPA buffer (50 mM Tris-HCl, pH 7.2, 150 mM NaCl, 0.1% SDS, 0.5% sodium deoxycholate, 1.0% Triton X-100, 10 mM sodium pyrophosphate, 25 mM β-glycerophosphate, 2 mM sodium vanadate, 2.1 μg/ml aprotinin) and the nuclei were pelletted. […]

[5] = system: p42/p44 MAPK; test: MAPK assay (DEAE-Sephacel, EGFR662-681 peptide) in L929 cells; assay type: cell-based, murine; settings: L929 cells
Method: as §1
FIG. 26 depicts the activation of MAPK by bFGF in L929 cells. Serum starved L929 cells were stimulated for 10 min with the indicated concentration of bFGF.
as §2

[6] = system: GST-Ras^V12; test: Direct binding of purified MEKKCOOH-His to GST-Ras^V12, read by phosphorylation of kinase inactive MEK1; settings: 100 μM peptide, pre-incubation 1 hr at 4° C.
Excerpt: A construct encoding the kinase domain of a Rat MEKK1 cDNA (95% identical to mouse MEKK1) with a N-terminal hexahistidine tag (referred to herein as MEKKCOOH-His; provided by Dr. Melanie Cobb, Department of Pharmacology, University of Texas Southwestern Medical School, Dallas, Tex.) was expressed in bacteria and soluble active enzyme was purified on Ni2+-NTA agarose according to the method generally described in Gardner et al. (Methods of Enzymology 238:258-270, 1994) Purified recombinant MEKKCOOH-His was incubated with either GST or GST-Ras^V12 in PAN buffer (10 mM PIPES [pH 7.0], 100 mM NaCl, 0.2 U/ml aprotinin) for 1 hr at 4° C. The agarose beads were pelleted and washed 3 times in PAN buffer. […] To test the direct interaction of MEKK1 with the effector domain of Ras, samples were prepared by pre-incubating the agarose beads with either 100 μM of Ras peptide consisting of residues 17-42 of H-Ras or 100 μM of Ras control peptide ([D-Arg^1,D-Phe^5,DTrp^7,9,Leu^11] substance P peptide for 1 hr at 4° C. prior to addition of the MEK1 substrate. A control reaction containing wild-type MEKK1 which autophosphorylates, served as a marker for the MEKK1 substrate. Reactions were terminated by addition of 5× Laemmlei SDS sample buffer, boiled and resolved by SDS-PAGE.

[7] = system: Swiss 3T3 cells; test: MEKKCOOH-induced cell death after nuclear microinjection of expression plasmids; assay type: cell-based
Method: Swiss 3T3 and REF52 cells were plated on acid-washed glass cover slips in Dulbecco's Modified Eagle's Medium (DMEM) and 10% bovine calf serum (BCS) or newborn calf serum (NCS). Cells were placed in DMEM/0.1% calf serum for overnight incubation prior to microinjection and used for injection at 50-70% confluence. Injections were performed with an Eppendorf automated microinjection system with needles pulled from glass capillaries on a vertical pipette puller (Kopf, Tujunga, Calif.). Cells were injected with pCMVβ-gal in the presence or absence of pCMV5MEKKCOOH or pCMV5BxBRaf at 20-100 ng/μl for each expression plasmid in 100 mM KC1, 5 mM NaPO4, pH 7.3. Following injection cells were placed in 1% NCS for 12-18 hr (Swiss 3T3) or 42 hr (REF52) prior to fixation with paraformaldehyde and staining. Similar results were obtained when cells were placed in 10% NCS after microinjection. Propidium iodide ([…]) was used to stain DNA. X-Gal reactions were performed for six hr.
Swiss 3T3 cells were microinjected with 100 ng/μl pCMVβ-gal and 20 ng/μl pCMV5MEKKCOOH. To label free DNA ends fixed and rehydrated cells were incubated with terminal deoxytransferase (TDT) and 10 nM biotin-dUTP following the manufacturer's instructions (Boehringer-Mannheim). Cells were stained with FITC-streptavidin to label DNA fragments. β-gal was detected using rabbit anti-p-gal antibody (Cappel Labs) and a rhodamine-labeled goat anti-rabbit antibody (Cappel Labs).
Seventeen hours after injection cells were fixed and stained for, β-galactosidase activity with X-Gal. Injected cells attached to the coverslip were scored as positive for cell death when they were highly condensed, small round cells.

[8] = 100 ng/μl plasmids, seventeen hours after injection, X-Gal

Compound: CCCCCCCCCCCCCC(=O)O[C@@H]1[C@@H](C)[C@@]2(O)[C@@H](C=C(CO)C[C@]3(O)C(=O)C(C)=C[C@@H]23)[C@H]2C(C)(C)[C@]12OC(C)=O [TPA, reference compound]
- MEKK activity after stimulation (in words) [1]: also activated MEKK, although to a lesser degree than EGF

Compound: N17 Ras: Dominant negative Ha-ras (Asn 17), inhibitory Ras [reference compound]
- effect on activation of MEKK by EGF ([1]; PC12 cells, EGF 30 ng/ml 5 minutes): inhibited the activation of MEKK by EGF
- effect on activation of Raf-B by EGF [2]: greatly reduced
- effect on TNFα induced apoptosis ([3]; 5 ng/ml TNFα): did not affect
- effect on ability of bFGF to protect against TNFα-mediated cell death ([3]; TNFα plus bFGF): markedly inhibit
- effect on TNFα stimulation of JNK [4]: had no effect on TNF stimulation of JNK
- effect on bFGF stimulation of MAPK activity [5]: significantly blunted bFGF stimulation of MAPK

Compound: NGF: Nerve growth factor
- MEKK activity after stimulation (in words) [1]: slight increase in MEKK activity; also recorded: also activated MEKK, although to a lesser degree than EGF

- effect on binding of GST-Ras^V12(GTPγS) agarose to MEKKCOOH-His [6]: prevented the binding
Compound: Ras effector peptide: Ras peptide consisting of residues 17-42 of H-Ras (SALTIQLIQNHFVDEYDPTIEDSYRK; UniProt P01112 17-42, looked up, fragment)

- effect on binding of GST-Ras^V12(GTPγS) agarose to MEKKCOOH-His [6]: able to bind
Compound: [D-Arg^1,D-Phe^5,D-Trp^7,9,Leu^11] substance P peptide [reference compound]

Compound: β-gal [reference compound]
- Condensed Cells (number) [7, 8]: 4
- Condensed Cells (percent of cells injected) [7, 8]: (1%)
- injected cells with an altered morphology ([7]; 48-72 hours post-injection): < 1%
